Where two headings read alike, the source gives them in different places.
What was measured:
advanced HCCs = settings: adults with advanced HCCs; cited from earlier work
RCCs = settings: adults with RCCs; cited from earlier work
[1] = system: placental growth factor (PlGF); assay: Plasma PlGF by ELISA, baseline vs steady state; assay type: in vivo, children; settings: at steady state vs baseline, P ≤ 0.001
[2] = in vivo
[3] = cited from earlier work
plasma VEGF = settings: paired samples (n = 26), baseline vs end of cycle 1
[4] = system: refractory leukemias (AML and FLT3ITD); assay: Response evaluation, leukemias; assay type: in vivo, children; settings: 2 patients with AML and FLT3ITD
[5] = in vivo; remark: listed apart in the source
[6] = cited from earlier work; remark: listed apart in the source
refractory solid tumors = assay: Response evaluation, solid tumors; assay type: in vivo, children
[7] = system: circulating endothelial cells (CEC); assay: Circulating endothelial cells by fluorescence-activated cell sorter; assay type: in vivo, children; settings: paired samples (n = 21), baseline vs end of cycle 1
[8] = cited from earlier work; remark: listed apart in the source
[9] = human, in vivo
endoglin = settings: paired samples (n = 26), baseline vs end of cycle 1
[10] = system: circulating endothelial progenitor cells (CEPC); assay: Circulating endothelial progenitor cells by fluorescence-activated cell sorter; assay type: in vivo, children; settings: paired samples (n = 21), baseline vs end of cycle 1
clinical = settings: human, in vivo
multiple tumor types = settings: cited from earlier work
refractory leukemias = settings: cited from earlier work

SMILES: CNC(=O)c1cc(Oc2ccc(NC(=O)Nc3ccc(Cl)c(C(F)(F)F)c3)cc2)ccn1 [Sorafenib]
- objective response (advanced HCCs): 2%
- objective response (RCCs): 10%
- PlGF, change [1]: increase
- Anorexia grade 2 (non-DLT) ([2]; human): 1
- Headache grade 2 (non-DLT) ([2]; human): 1
- Hyperglycemia grade 1 (non-DLT) ([2]; human): 1
- Hypocalcemia grade 2 (non-DLT) ([2]; human): 1
- Hypokalemia grade 3 (non-DLT) ([2]; human): 1
- Hypomagnesemia grade 1 (non-DLT) ([2]; human): 2
- Hypophosphatemia grade 2 (non-DLT) ([2]; human): 1
- Increased AST grade 1 (non-DLT) ([2]; human): 1
- Increased bilirubin grade 1 (non-DLT) ([2]; human): 1
- Nausea grade 1 (non-DLT) ([2]; human): 1
- Rash/Desquamation grade 1 (non-DLT) ([2]; human): 2
- Anorexia grade 1 (non-DLT) ([2]; human, 28 days): 1
- Anorexia grade 2 (non-DLT) ([2]; human, 28 days): 1
- Diarrhea grade 1 (non-DLT) ([2]; human, 28 days): 2
- Diarrhea grade 2 (non-DLT) ([2]; human, 28 days): 1
- Fatigue grade 2 (non-DLT) ([2]; human, 28 days): 2
- Hyperglycemia grade 1 (non-DLT) ([2]; human, 28 days): 2
- Increased ALT grade 1 (non-DLT) ([2]; human, 28 days): 1
- Increased ALT grade 2 (non-DLT) ([2]; human, 28 days): 1
- Increased AST grade 1 (non-DLT) ([2]; human, 28 days): 3
- Increased AST grade 2 (non-DLT) ([2]; human, 28 days): 1
- Increased bilirubin grade 1 (non-DLT) ([2]; human, 28 days): 2
- Nausea grade 1 (non-DLT) ([2]; human, 28 days): 2
- recommended phase II dose ([2]; human, 28 days): 150 mg/m^2/dose
- Headache grade 1 (non-DLT) ([2]; human, 28 days (course 1)): 1
- Headache grade 2 (non-DLT) ([2]; human, 28 days (course 1)): 1
- Hyperglycemia grade 2 (non-DLT) ([2]; human, 28 days (course 1)): 1
- Hypoalbuminemia grade 1 (non-DLT) ([2]; human, 28 days (course 1)): 1
- Hypoalbuminemia grade 2 (non-DLT) ([2]; human, 28 days (course 1)): 1
- Hypocalcemia grade 1 (non-DLT) ([2]; human, 28 days (course 1)): 1
- Hypocalcemia grade 2 (non-DLT) ([2]; human, 28 days (course 1)): 1
- Hypokalemia grade 1 (non-DLT) ([2]; human, 28 days (course 1)): 2
- Hypomagnesemia grade 1 (non-DLT) ([2]; human, 28 days (course 1)): 1
- Hypomagnesemia grade 3 (non-DLT) ([2]; human, 28 days (course 1)): 1
- Hyponatremia grade 1 (non-DLT) ([2]; human, 28 days (course 1)): 2
- Hypophosphatemia grade 2 (non-DLT) ([2]; human, 28 days (course 1)): 1
- Hypophosphatemia grade 3 (non-DLT) ([2]; human, 28 days (course 1)): 1
- Proteinuria grade 1 (non-DLT) ([2]; human, 28 days (course 1)): 1
- Proteinuria grade 2 (non-DLT) ([2]; human, 28 days (course 1)): 1
- dose-limiting ALT/AST elevation [2]: No dose-limiting ALT/AST elevation
- incidence of grade 2 and 3 hand foot skin reactions and rashes ([3]; children with solid tumors, sorafenib in combination): 5 of 19
- recommended phase II dose ([3]; twice daily, with bevacizumab and cyclophosphamide): 90 mg/m^2/dose
- plasma VEGF concentration, change (plasma VEGF): no change
- bone marrow blasts [4]: less than 5%
- Alopecia grade 1 (non-DLT) ([5]; human): 1
- Anorexia grade 2 (non-DLT) ([5]; human): 1
- Fatigue grade 2 (non-DLT) ([5]; human): 2
- Fever grade 1 (non-DLT) ([5]; human): 1
- Hand-foot skin reaction grade 2 (non-DLT) ([5]; human): 2
- Headache grade 1 (non-DLT) ([5]; human): 1
- Headache grade 2 (non-DLT) ([5]; human): 1
- Hemoglobin grade 1 (non-DLT) ([5]; human): 4
- Hemoglobin grade 2 (non-DLT) ([5]; human): 1
- Hemoglobin grade 3 (non-DLT) ([5]; human): 1
- Hypertension grade 1 (non-DLT) ([5]; human): 3
- Hypertension grade 3 (non-DLT) ([5]; human): 1
- Hypoalbuminemia grade 1 (non-DLT) ([5]; human): 1
- Hypocalcemia grade 1 (non-DLT) ([5]; human): 3
- Hypophosphatemia grade 2 (non-DLT) ([5]; human): 1
- Increased ALT grade 2 (non-DLT) ([5]; human): 1
- Increased AST grade 2 (non-DLT) ([5]; human): 1
- Increased bilirubin grade 1 (non-DLT) ([5]; human): 1
- Increased bilirubin grade 2 (non-DLT) ([5]; human): 1
- Leukopenia grade 1 (non-DLT) ([5]; human): 4
- Leukopenia grade 2 (non-DLT) ([5]; human): 2
- Leukopenia grade 3 (non-DLT) ([5]; human): 2
- Lymphopenia grade 1 (non-DLT) ([5]; human): 2
- Lymphopenia grade 2 (non-DLT) ([5]; human): 2
- Lymphopenia grade 3 (non-DLT) ([5]; human): 1
- Nausea grade 3 (non-DLT) ([5]; human): 1
- Neutropenia grade 1 (non-DLT) ([5]; human): 3
- Neutropenia grade 2 (non-DLT) ([5]; human): 1
- Neutropenia grade 3 (non-DLT) ([5]; human): 2
- Pain, Other (jaw) grade 1 (non-DLT) ([5]; human): 1
- Thrombocytopenia grade 2 (non-DLT) ([5]; human): 1
- Vomiting grade 1 (non-DLT) ([5]; human): 1
- Vomiting grade 3 (non-DLT) ([5]; human): 1
- patients who developed a DLT after cycle 1 ([5]; human): 5
- Alopecia grade 1 (non-DLT) ([5]; human, 28 day): 2
- Anorexia grade 1 (non-DLT) ([5]; human, 28 day): 4
- Diarrhea grade 2 (non-DLT) ([5]; human, 28 day): 1
- Fatigue grade 1 (non-DLT) ([5]; human, 28 day): 4
- Fatigue grade 2 (non-DLT) ([5]; human, 28 day): 2
- Fever grade 1 (non-DLT) ([5]; human, 28 day): 2
- Hand-foot skin reaction grade 1 (non-DLT) ([5]; human, 28 day): 1
- Hand-foot skin reaction grade 2 (non-DLT) ([5]; human, 28 day): 1
- Headache grade 1 (non-DLT) ([5]; human, 28 day): 3
- Headache grade 2 (non-DLT) ([5]; human, 28 day): 1
- Hypoalbuminemia grade 1 (non-DLT) ([5]; human, 28 day): 1
- Hypoalbuminemia grade 2 (non-DLT) ([5]; human, 28 day): 1
- Hypocalcemia grade 1 (non-DLT) ([5]; human, 28 day): 3
- Hypophosphatemia grade 2 (non-DLT) ([5]; human, 28 day): 2
- Increased ALT grade 2 (non-DLT) ([5]; human, 28 day): 1
- Increased AST grade 2 (non-DLT) ([5]; human, 28 day): 1
- Increased bilirubin grade 2 (non-DLT) ([5]; human, 28 day): 1
- Lymphopenia grade 1 (non-DLT) ([5]; human, 28 day): 1
- Lymphopenia grade 3 (non-DLT) ([5]; human, 28 day): 1
- Mucositis/stomatitis grade 1 (non-DLT) ([5]; human, 28 day): 2
- Nausea grade 2 (non-DLT) ([5]; human, 28 day): 2
- Rash/Desquamation grade 1 (non-DLT) ([5]; human, 28 day): 3
- Rash/Desquamation grade 2 (non-DLT) ([5]; human, 28 day): 1
- Thrombocytopenia grade 1 (non-DLT) ([5]; human, 28 day): 4
- Thrombocytopenia grade 2 (non-DLT) ([5]; human, 28 day): 1
- Hand-foot skin reaction grade 1 (non-DLT) ([5]; human, 28 days): 1
- Hemoglobin grade 1 (non-DLT) ([5]; human, 28 days): 3
- Hemoglobin grade 2 (non-DLT) ([5]; human, 28 days): 1
- Hemoglobin grade 3 (non-DLT) ([5]; human, 28 days): 2
- Hypertension grade 1 (non-DLT) ([5]; human, 28 days): 4
- Hypertension grade 2 (non-DLT) ([5]; human, 28 days): 1
- Hyponatremia grade 1 (non-DLT) ([5]; human, 28 days): 3
- Leukopenia grade 1 (non-DLT) ([5]; human, 28 days): 5
- Leukopenia grade 2 (non-DLT) ([5]; human, 28 days): 2
- Leukopenia grade 3 (non-DLT) ([5]; human, 28 days): 2
- Pain, Other (forearm) grade 1 (non-DLT) ([5]; human, 28 days): 1
- Rash/Desquamation grade 2 (non-DLT) ([5]; human, 28 days): 3
- recommended phase II dose ([5]; human, 28 days): 200 mg/m^2/dose
- Lymphopenia grade 1 (non-DLT) ([5]; human, 28 days (course 1)): 2
- Lymphopenia grade 2 (non-DLT) ([5]; human, 28 days (course 1)): 1
- Lymphopenia grade 3 (non-DLT) ([5]; human, 28 days (course 1)): 2
- Neutropenia grade 1 (non-DLT) ([5]; human, 28 days (course 1)): 5
- Neutropenia grade 2 (non-DLT) ([5]; human, 28 days (course 1)): 1
- Neutropenia grade 3 (non-DLT) ([5]; human, 28 days (course 1)): 2
- Thrombocytopenia grade 1 (non-DLT) ([5]; human, 28 days (course 1)): 4
- bony abnormalities on serial plain radiographs [5]: No bony abnormalities
- in vitro activity [6]: low micromolar concentrations
- tumor shrinkage (refractory solid tumors; 1 patient (#24) with synovial sarcoma, after cycle 1, progression after cycle 2): more than 40%
- objective responses (refractory solid tumors; patients with solid tumors): no confirmed objective responses
- patients with stable disease for 4 or more cycles (refractory solid tumors; solid tumor patients): 14
- CEC number, change [7]: no change
- AUC0–12h ([8]; adults, 400-mg dose after multiple doses): 47800 to 76500 ng·h/mL
- adults requiring dose reductions with chronic administration ([8]; mostly due to skin toxicity and diarrhea): Up to a third
- recommended fixed dose ([8]; twice daily, adults): 400 mg
- Tmax, steady state [9]: 0.8 h
- plasma endoglin concentration, change (endoglin): no change
- CEPC number, change [10]: no change
- half-life (clinical): ≥ 24 h
- AUC(0-t) (clinical; 130 mg/m2, AUC0–24h, day 1): 20000 ng·h/mL
- Tmax (clinical; 130 mg/m2, Tmax, day 1): 7.9 h
- Tmax (clinical; 150 mg/m2, Tmax, steady state): 3 h
- AUC(0-t) (clinical; 200 mg/m2, AUC0–24h, day 1): 19000 ng·h/mL
- Cmax (clinical; 200 mg/m2, Cmax, day 1): 1000 ng/mL
- AUC(0-t) (clinical; 200 mg/m2, median steady-state AUC0–12h): 55700 ng·h/mL
- AUC(0-t) (clinical; 250 mg/m2, AUC0–24h, day 1): 27600 ng·h/mL
- Tmax (clinical; 250 mg/m2, Tmax, day 1): 8 h
- Tmax (clinical; […]2, Tmax, day 1): 5 h
- AUC(0-t) (clinical; mean (SD) AUC0–12h steady state): 61200 ng·h/mL
- Cmax (clinical; po, 130 mg/m2, Cmax, day 1): 1500 ng/mL
- AUC(0-t) (clinical; po, 150 mg/m2, AUC0–12h, steady state): 49700 ng·h/mL
- AUC(0-t) (clinical; po, 150 mg/m2, AUC0–24h, day 1): 28300 ng·h/mL
- Cmax (clinical; po, 150 mg/m2, Cmax, day 1): 1900 ng/mL
- AUC(0-t) (clinical; po, 200 mg/m2, AUC0–12h, steady state): 60200 ng·h/mL
- AUC(0-t) (clinical; po, 200 mg/m2, AUC0–24h, day 1): 27300 ng·h/mL
- Cmax (clinical; po, 200 mg/m2, Cmax, day 1): 1600 ng/mL
- Cmax (clinical; po, 200 mg/m2, Cmax, steady state): 8300 ng/mL
- Tmax (clinical; po, 200 mg/m2, Tmax, steady state): 3.4 h
- Tmax (clinical; po, […]2, Tmax, day 1): 5 h
- in vivo antitumor activity (multiple tumor types): growth inhibition observed in multiple tumor types
- sorafenib steady-state (day 7) concentration (refractory leukemias; 150 mg/m^2, children with refractory leukemia): 7.0 ± 1.8 µg/mL
- sorafenib steady-state (day 7) concentration (refractory leukemias; 200 mg/m^2, children with refractory leukemia): 6.5 ± 3.6 µg/mL
- patients with complete remission (refractory leukemias; after combination therapy): 6
- patients with decreased blast percentages (refractory leukemias; by day 8): 10 of 12
- conversion of sorafenib to the active N-oxide metabolite (refractory leukemias; children vs that reported in adult patients): much higher rate of conversion
- incidence of grade 2 and 3 hand foot skin reactions and rashes (refractory leukemias; children with leukemia, sorafenib in combination): 8 of 12

SMILES: O=P1(N(CCCl)CCCl)NCCCO1 (centres unmarked) [cyclophosphamide]
- recommended phase II dose ([3]; once daily, with sorafenib and bevacizumab): 50 mg/m^2
